# Experiment: PK of compound of Formula (Ia) after single subcutaneous dose of solution formulations in Wistar Han rats
# Assay type: in vivo
# Details: male, Wistar Han, rat, plasma, sc, 50 mg/kg, SC 50 mg/kg
# Procedure: Formulations containing the compound of Formula (Ia), or a pharmaceutically acceptable salt thereof, were prepared as solutions and optionally administered subcutaneously or intramuscularly to rats, rabbits, and/or dogs.
# (§1) A solution of about 400 mg/mL of the compound of Formula (Ia) having 19.14 w/w % water, 40.66 w/w % PEG 300, 35.20 w/w % of a sodium salt of a compound of Formula (Ia), and 5.00% ethanol was prepared. The solution was administered subcutaneously to male Wistar Han rats at a dose level of about 50 mg/kg and dose volume of 0.125 mL/kg and the pharmacokinetic (PK) profile was determined.
# as §1, with “500” for “400”, “16.64” for “19.14”, “35.36” for “40.66”, “43.00” for “35.20”, “0.1” for “0.125”
# (§2) A solution of about 400 mg/mL of the compound of Formula (Ia) having 17.00 w/w % water, 36.40 w/w % PEG 300, 35.20 w/w % of a sodium salt of a compound of Formula (Ia), 5.00 w/w % ethanol, and 6.40 w/w % poloxamer 188 was prepared. The solution was administered subcutaneously to male beagle dogs at a dose level of about 12 mg/kg and male Wistar Han rats at a dose level of about 50 mg/kg. The pharmacokinetic profiles were determined, and the results for dogs are summarized in Table and Table, while the results for rats are summarized in Table and Table below.
# as §2, with “500” for “400”, “14.06” for “17.00”, “30.12” for “36.40”
# A solution of about 300 mg/mL of the compound of Formula (Ia) having 23.33 w/w % water, 48.99 w/w % PEG 300, 26.47 w/w % of a sodium salt of a compound of Formula (Ia), and 1.21 w/w % poloxamer 188 was prepared. The solution was administered subcutaneously to male beagle dogs at a dose level of about 6 mg/kg and male Wistar Han rats at a dose level of about 50 mg/kg. The pharmacokinetic profiles were determined, and the results for dogs are summarized in Table and Table, while the results for rats are summarized in Table and Table below.
# as §2, with “18.80” for “17.00”, “40.25” for “36.40”, “34.38” for “35.20”, “1.57” for “6.40”
# as §2, with “500” for “400”, “16.29” for “17.00”, “34.88” for “36.40”, “41.92” for “35.20”, “1.91” for “6.40”
# A solution of about 400 mg/mL of the compound of Formula (Ia) having 20.90 w/w % water, 44.72 w/w % PEG 300, and 34.38 w/w % of a sodium salt of a compound of Formula (Ia) was prepared. […]
# [1] = individual rats, solution T, 400 mg/mL
# [2] = individual rats, solution U, 500 mg/mL
# [3] = individual rats, solution V, 300 mg/mL
# [4] = mean, n = 3 rats, solution R, 400 mg/mL
# [5] = mean, n = 3 rats, solution S, 500 mg/mL
# [6] = mean, n = 3 rats, solution V, 300 mg/mL
# [7] = mean, n = 5 rats, solution T, 400 mg/mL
# [8] = mean, n = 5 rats, solution U, 500 mg/mL
# [9] = individual rats, solution R, 400 mg/mL
# [10] = individual rats, solution S, 500 mg/mL
compound,measurement,setting,value
CC(C)(C#Cc1ccc(-c2ccc(Cl)c3c(NS(C)(=O)=O)nn(CC(F)(F)F)c23)c([C@H](Cc2cc(F)cc(F)c2)NC(=O)Cn2nc(C(F)(F)F)c3c2C(F)(F)[C@@H]2C[C@H]32)n1)S(C)(=O)=O [compound of Formula (Ia)],concentration at 8 h,[1],294 nM
same,concentration at 8 h,[2],176 nM
same,concentration at 8 h,[3],170 nM
same,concentration at 8 h,[4],112 nM
same,concentration at 8 h,[5],100 nM
same,concentration at 8 h,[6],155 nM
same,concentration at 8 h,[7],211 nM
same,concentration at 8 h,[8],142 nM
same,concentration at 24 h,[9],167 nM
same,concentration at 24 h,[10],111 nM
same,concentration at 24 h,[2],300 nM
same,concentration at 24 h,[3],222 nM
same,concentration at 24 h,[4],162 nM
same,concentration at 24 h,[5],127 nM
same,concentration at 24 h,[6],193 nM
same,concentration at 24 h,[7],339 nM
same,concentration at 24 h,[8],224 nM
same,concentration at 48 h,[9],184 nM
same,concentration at 48 h,[10],92.6 nM
same,concentration at 48 h,[3],265 nM
same,concentration at 48 h,[4],151 nM
same,concentration at 48 h,[5],123 nM
same,concentration at 48 h,[6],197 nM
same,concentration at 48 h,[7],307 nM
same,concentration at 48 h,[8],211 nM
same,concentration at 72 h,[9],168 nM
same,concentration at 72 h,[10],95.8 nM
same,concentration at 72 h,[1],353 nM
same,concentration at 72 h,[3],187 nM
same,concentration at 72 h,[4],148 nM
same,concentration at 72 h,[5],127 nM
same,concentration at 72 h,[6],148 nM
same,concentration at 72 h,[7],247 nM
same,concentration at 72 h,[8],197 nM
same,concentration at 96 h,[9],181 nM
same,concentration at 96 h,[10],105 nM
same,concentration at 96 h,[2],230 nM
same,concentration at 96 h,[3],164 nM
same,concentration at 96 h,[4],152 nM
same,concentration at 96 h,[5],120 nM
same,concentration at 96 h,[6],136 nM
same,concentration at 96 h,[7],240 nM
same,concentration at 96 h,[8],167 nM
same,concentration at 168 h,[9],191 nM
same,concentration at 168 h,[10],123 nM
same,concentration at 168 h,[3],100 nM
same,concentration at 168 h,[4],160 nM
same,concentration at 168 h,[5],109 nM
same,concentration at 168 h,[6],104 nM
same,concentration at 168 h,[7],173 nM
same,concentration at 168 h,[8],154 nM
same,concentration at 336 h,[9],251 nM
same,concentration at 336 h,[3],194 nM
same,concentration at 336 h,[4],261 nM
same,concentration at 336 h,[5],183 nM
same,concentration at 336 h,[6],201 nM
same,concentration at 336 h,[7],254 nM
same,concentration at 336 h,[8],244 nM
same,concentration at 504 h,[9],348 nM
same,concentration at 504 h,[10],415 nM
same,concentration at 504 h,[3],241 nM
same,concentration at 504 h,[4],353 nM
same,concentration at 504 h,[5],287 nM
same,concentration at 504 h,[6],265 nM
same,concentration at 504 h,[7],301 nM
same,concentration at 504 h,[8],303 nM
same,concentration at 672 h,[9],290 nM
same,concentration at 672 h,[10],407 nM
same,concentration at 672 h,[3],274 nM

# — patent US11807625B2, “Capsid inhibitors for the prevention of HIV” (Gilead Sciences, Inc., priority 2019, dated 2023)
